The results in this text go back to patent US20190069576A1, “Solid Form Nutrient Compositions” (Railsplitter Feed Technology, Inc., priority 2016, published 2019).

The assay concerns infant pigs. Put plainly: Hemoglobin measurement of pigs treated with granular materials or iron dextran injections. The format is in vivo, pig. How it is done:
In Example 6, four litters of pigs were provided granular product (sample numbers 272 and 280). These litters were offered these granular products ad litum from birth to 21 days of birth. Two litters were not offered granular material, but were instead injected with iron dextran on day 3 after birth with 1 cc of 200 mg of iron dextran. Two other litters, also not offered granular material, were injected twice, once on day 3, and once on day 10 after birth. Each injection was a 1 cc injection of 200 mg of iron dextran.
The National Research Council in the Nutrient Requirement of Swine publication recommends that levels of iron dextran providing more than 200 mg per pig in one injection be avoided. Many producers provide a second injection to minimize the deficiency which doubles the cost of preventing anemia in young pigs, and increases the probability of spreading pathogens with needles.
Hemoglobin analysis is an excellent way to quantitate the adequacy of iron for the pig but the treatment differences are obvious by just viewing the litters.
A striking difference between healthy hemoglobin adequate pigs and anemic pigs is the color of the skin. This is most obvious in white pigs, and most pigs in US have some white color in their breed lineage. Pigs with hemoglobin values above 10 gm per 100 ml. have extremely bright, pink skin, while anemic pigs have very pale almost white color of the skin.

The mark [1] stands for this setting: 1 injection, day 3, 1 cc of 200 mg, first litter (12 pigs).
Setting [2] is: 1 injection, second litter (10 pigs).
Where [3] appears, read: 2 injections, day 3 and day 10, each 1 cc of 200 mg, first litter (7 pigs).
The mark [4] stands for this setting: 2 injections, second litter (11 pigs).

iron dextran: the “Pigs <10 gm % (hemoglobin)” value by setting is: under setting [1], 10; under setting [2], 4; (1 injection, total of 22 pigs) 14; under setting [3], 2; under setting [4], 2; (2 injections, total of 18 pigs) 4. Further, the “Pigs >10 gm % (hemoglobin)” value worked out at 2 under setting [1]; 6 under setting [2]; 8 (1 injection, total of 22 pigs); 5 under setting [3]; 9 under setting [4]; 14 (2 injections, total of 18 pigs). For the same substance, the “% with adequate Hemoglobin” value reads like this: (1 injection, total of 22 pigs) 36%; (2 injections, total of 18 pigs) 77%.
